From PMC12424289, “Programmable Nanostructure Assembly of a Paclitaxel Derivative Enables Tunable Anticancer Therapy via Hydrogen Bond Engineering” (ACS Nano, 2025)

How the values were obtained:
[1] = test system: mouse breast 4T1 cells; assay: CCK8 antiproliferation assay, 4T1; assay type: cell-based; details: 4T1, 48 h treatment
Experimental: The mouse breast cancer cell line 4T1 and the human ovarian cancer cell line SKOV3 were cultured in RPMI 1640 medium supplemented with 10% fetal bovine serum, 100 units·mL^–1 penicillin, and 100 μg·mL^–1 streptomycin. The human lung cancer cell line A549 and the luciferase-expressing human colorectal carcinoma cell line HCT116-Luc were cultured in high-glucose DMEM medium supplemented with 10% fetal bovine serum, 100 units·mL^–1 penicillin, and 100 μg·mL^–1 streptomycin. All cell lines were maintained at 37 °C in a Steri-Cycle 371 incubator (Thermo Scientific, USA) with a humidified atmosphere of 5% CO2. Only cells between passages 5 and 15 were used for cell-based experiments.
The antiproliferative activity of PTP was evaluated using the Cell Counting Kit-8 (CCK8) assay. PTX solution served as a positive control. Cell suspensions were prepared at a density of 3 × 10^4 cells·mL^–1 and seeded in 96-well plates at a volume of 100 μL per well. The plates were incubated for 24 h to allow cell attachment and growth. Subsequently, the culture media were replaced with fresh media containing varying concentrations of PTX or PTP solutions (100 μL per well), and the cells were incubated for an additional 48 h (n = 3). Control wells received fresh culture media alone (n = 3). […] Finally, the absorbance was measured at 450 nm using a microplate reader (Synergy H1, BioTek, USA). […]

[2] = Biodistribution in 4T1 tumor-bearing mice; assay type: in vivo, Balb/c mice; details: iv 10.0 mg·kg^–1
Experimental: For plasma samples, 50 μL of plasma was mixed with 100 μL of a docetaxel acetonitrile solution (15 ng·mL^–1) for protein precipitation. The mixture was vortexed and then centrifuged at 4 °C, 17 000 rpm for 30 min. For tissue samples, mice were euthanized at specified time points, and tissues were harvested and rinsed with saline. Two kidneys, the entire heart, spleen, lung, tumor, and 150–200 mg of liver were placed in grinding tubes. Saline was added at a ratio of 1:5 (m/v), and the tissues were ground using a freezing grinder (Jingxin, China) at 4 °C. Next, 100 μL of docetaxel acetonitrile solution (15 ng·mL^–1) was added to 50 μL of the tissue homogenate. […] The supernatants for both plasma and tissue samples were analyzed by LC-MS as described below.
The concentrations of PTP and PTX in plasma and tissue samples were determined using liquid chromatography–mass spectrometry (LC-MS) with a G6470A system (Agilent, USA) equipped with a C18 column (2.1 × 100 mm, 2.7 μm, Agilent, USA). […]
Pharmacokinetic features were evaluated in Sprague–Dawley rats (200–300 g, n = 6 per group) following a single intravenous administration of PTX solution (1.0 mg·mL^–1), PTP (1.2 mg·mL^–1), or PTP@PEG (1.2 mg·mL^–1) at a dose equivalent to 3.0 mg·kg^–1 PTX. […] Biodistribution was assessed in female Balb/c mice (18–22 g; n = 6 per group) bearing subcutaneous 4T1 tumors (target volume 200–300 mm^3). […]

[3] = test system: tubulin; assay: Isothermal titration calorimetry with tubulin; assay type: binding; details: tubulin 180 μM titrated into 25 μM compound
Experimental: ITC experiments were performed using a Nano-ITC (TA Instruments, USA) with all samples degassed for 8 min prior to measurement. Experiments were conducted under stirring at 350 rpm. To account for background signals, control experiments were conducted and subtracted from the test data. The resulting heat values were analyzed using an independent model to extract thermodynamic parameters. For tubulin binding studies, solutions were prepared in PEM buffer containing 5% (v/v) DMSO. In each experiment, 400 μL of the […] was loaded into the sample cell, and 400 μL of PEM buffer with 5% (v/v) DMSO was placed in the reference cell. Tubulin solution (180 μM) was titrated into the sample cell in 25 injections of 2 μL each at 4 °C. A control titration of tubulin into PEM buffer (5% DMSO) was performed to account for dilution effects. To assess interactions between PTP and excipients, PTP dispersions (25 μM) were loaded into the sample cell, and water was used in the reference cell. PEG400 solution (6.0 mg·mL^–1) was titrated into a 2.0 mg·mL^–1 PTP dispersion, and HA (2.7 mg·mL^–1) into a 1.0 mg·mL^–1 PTP dispersion. Both titrations were performed at 25 °C with 25 injections of 2 μL each. Control experiments were performed by titrating PEG400 or HA into water to correct for nonspecific heat effects.

With CC(=O)O[C@H]1C(=O)[C@@]2(C)[C@H]([C@H](OC(=O)c3ccccc3)[C@]3(O)C[C@H](OC(=O)[C@H](OC(=O)CCP(=O)(O)O)[C@@H](NC(=O)c4ccccc4)c4ccccc4)C(C)=C1C3(C)C)[C@]1(OC(C)=O)CO[C@@H]1C[C@@H]2O [PTP, PTX-2’–OOC-P] the IC50 [1] was 82.4 nM, the “biodistribution, organs of accumulation” value [2] was “primarily accumulated in the liver and kidney” and the “molar ratio of tubulin to compound” value ([3]; ITC) was 1.6. For the same compound, the “Gibbs free energy change (ΔG)” value ([3]; 5% DMSO, 4 °C) was −26.8 kJ·mol^–1.
